Patent US5254576A, “Diphenyl-heterocyclic-oxazole as platelet aggregation inhibitors” (Bristol-Myers Squibb Company, priority 1992, dated 1993)
Converted amounts (≈) assume the structure as drawn.

System: platelet aggregation
Assay: not given
Details: prior art (U.S. Pat. No. 4,460,598; EPO 0434034); cited from earlier work

| SMILES | inhibition of platelet aggregation, in words |
| --- | --- |
| O=C(O)CCCCCCCOc1nc(-c2ccccc2)c(-c2ccccc2)n1-c1ccccc1 [Octimibate] | broad spectrum inhibitor of platelet aggregation |

System: ADP-induced aggregation of human blood platelets
Assay: cells
Details: Platelet, read-out: IC50 (human PRP vs ADP)

| SMILES | IC50 |
| --- | --- |
| COCOc1cccc(-c2ocnc2-c2nc(-c3ccccc3)c(-c3ccccc3)o2)c1 [Compound 10] | 28 µg/mL (≈ 66 µM) |
| COC(=O)COc1cccc(-c2ocnc2-c2nc(-c3ccccc3)c(-c3ccccc3)o2)c1 [Compound 6] | 0.012 µg/mL (≈ 0.0265 µM) |
| O=C(O)COc1cccc(-c2ocnc2-c2nnc(-c3ccccc3)n2-c2ccccc2)c1 [Compound 17] | > 32 µg/mL |
| O=C(O)COc1cccc(-c2ocnc2-c2nc(-c3ccccc3)c(-c3ccccc3)[nH]2)c1 [Compound 23] | 0.012 µg/mL (≈ 0.0274 µM) |
| COC(=O)COc1cccc(-c2ocnc2-c2nc(-c3ccccc3)c(-c3ccccc3)s2)c1 [Compound 31] | 0.26 µg/mL (≈ 0.555 µM) |
| COC(=O)COc1cccc(-c2ocnc2-c2nc(-c3ccsc3)c(-c3ccsc3)o2)c1 [Compound 19] | 0.19 µg/mL (≈ 0.409 µM) |
| O=C(O)COc1cccc(-c2ocnc2-c2nc(-c3ccccc3)c(-c3ccccc3)s2)c1 [Compound 32] | 0.096 µg/mL (≈ 0.211 µM) |
| O=C(O)COc1cccc(-c2ocnc2-c2nc(-c3ccsc3)c(-c3ccsc3)o2)c1 [Compound 20] | 0.21 µg/mL (≈ 0.466 µM) |
| COC(=O)COc1cccc(-c2ocnc2-c2nnc(-c3ccccc3)n2-c2ccccc2)c1 [Compound 16, Methyl [3-[4-(4,5-diphenyl-4H-1,2,4-triazol-3-yl)-5-oxazolyl]phenoxy]acetate] | > 32 µg/mL |
| c1ccc(-c2nc(-c3ncoc3-c3cccc(OCc4nnn[nH]4)c3)oc2-c2ccccc2)cc1 [Compound 12, 5-[3-[4-(4,5-Diphenyl-2-oxazolyl)-5-oxazolyl]-phenoxy]methyl-1H-tetrazole] | 0.06 µg/mL (≈ 0.13 µM) |
| COC(=O)COc1cccc(-c2ocnc2-c2nc(-c3ccccc3)c(-c3ccccc3)[nH]2)c1 [Compound 22] | 0.13 µg/mL (≈ 0.288 µM) |
| O=C(O)COc1cccc(-c2ocnc2-c2nc(-c3ccccc3)c(-c3ccccc3)o2)c1 [Compound 5] | 0.012 µg/mL (≈ 0.0274 µM) |

System: human PRP vs ADP
Assay: not given
Details: U.S. Pat. No. 4,460,598; Lautenschlager, et al., Drugs of the Future, 11, 26 (1986); cited from earlier work

| SMILES | IC50 (human PRP vs ADP) |
| --- | --- |
| O=C(O)CCCCCCCOc1nc(-c2ccccc2)c(-c2ccccc2)n1-c1ccccc1 [Octimibate] | 1 µg/mL (≈ 2.2 µM) |
